From US20170051149A1, “AZOARYLS AS REVERSIBLY MODULATABLE TUBULIN INHIBITORS” (ECOLE NORMALE SUPERIEURE DE LYON, priority 2014, published 2017) come the findings set out here.

SMILES strings stand for the structures.

A short description of data set [1]: UV-Vis absorption spectra of trans and cis isomers (λstrong, εE, λiso). Particulars: PBS pH = 7.4, 20% MeCN. It is filed as physicochemical. Here is the method:
A(λmeas, λirrad) is used to indicate the measured UV-Vis absorption spectrum in the range 340 nm<λmeas<650 nm, as a function of the irradiating wavelength λirrad once PSS(λirrad) has been established. UV-Vis measurement of A(λmeas, λirrad) was performed. It was considered that the PSS had been established when the absorbance profile ceased to alter under continued irradiation. An isosbestic point (wavelength λiso) was found for each compound by examining where the absorption A(λmeas) was invariant with respect to changing λirrad. A(λmeas, dark) was also acquired with samples that had been kept in the dark for at least several hours, and it was assumed that no significant spectral contribution from the cis isomer was present in these spectra. […]
HPLC (high-performance liquid chromatography) was then used as described in Part A to measure ε*E(λ) and ε*Z(λ) (the separated absorption profiles of trans and cis isomers respectively, in arbitrary units which are not intercomparable in an absolute sense). It was approximated that these spectra would be identical in shape if measured under the UV-Vis conditions, so once ε*E(λ) and ε*Z(λ) were scaled appropriately relative to each other, these scaled spectra could be used to deconvolute A(λmeas, λirrad). This approximation was considered useful especially in the regions of greatest spectral interest, ie. regions of relatively strong absorption (since only rather well-absorbed wavelengths will allow significant photoisomerisation under finite photon flux). To place the arbitrary-unit absorption spectra on an absolute scale, the maximal absorption wavelength λstrong of the trans-isomer was first selected by examining A(λmeas, dark): typically, λstrong≈380 nm. with Expressing A(λstrong, dark) in units M^−1cm^−1, ε*E(λstrong) was then scaled so that εE(λstrong)=A(λstrong, dark), giving:
εE(λ)=ε*E(λ)×[A(λstrong,dark)/ε*E(λstrong)]
and the isosbestic point was used to scale the cis-isomer spectrum as per:
εZ(λ)=ε*Z(λ)×[εE(λiso)/ε*Z(λiso)]
However, using A(λstrong, dark) was preferred, since A(λiso) was typically so much smaller that the standard deviation in the scaled absorptivities which it generated was far greater.
Absorption spectra in cuvette (“UV-Vis”) were acquired on a Varian CaryScan 50 (1 cm, 100 μL or 1 mL volume) with Peltier cell temperature control unit maintained at 37° C., in PBS at pH˜7.4 containing a low percentage of cosolvent if needed (typically 2% MeCN or 5% DMSO). A ThorLabs Polychrome V monochromator with a fibre optic cable output directed into the cuvette was used to perform photoisomerisation studies by UV-Vis spectrophotometry although single LEDs of approximately 10-20 mW output, 15-20° cone angle, and 10-15 nm bandwidth FWHM, obtained commercially from Roithner Lasertechnik GmbH, were equally successful in providing repeatable monochromatic photoisomerisation. Separated spectra of trans and […] forms were acquired from the inline Diode Array Detector on the AGILENT 1260 SL coupled LC-MS system after HPLC separation. Fluorescence spectrophotometry (excitation and emission spectra) were acquired on a Varian CaryEclipse fluorescence spectrophotometer.
By the above procedure, the trans- and cis-isomers of each species were separated by HPLC as described in Part A, and ε*E(λ) and ε*Z(λ) were measured on the inline ultraviolet/visible Diode Array Detector; these were then scaled as outlined above. The parameters λstrong, εE(λstrong) and λiso are tabulated for selected compounds below (Table 1).

Data set [2] in a line: thermal reversion halflife of spontaneous cis->trans isomerisation. It is filed as physicochemical. Particulars: PBS pH = 7.4, 20% MeCN. The source says:
Finally, trends in τ were ascertained by establishing the PSS at λstrong, then turning off the light source at time t0, and measuring A(λstrong, t) over time. Data were acquired for half an hour, or else the first three halflives (whichever was the shorter period), then fitted to the equation:
A(λstrong,t)=A(λstrong,dark)−[A(λstrong,dark)−A(λstrong,t0)]×e^−kt
This fit was used to return an in vitro halflife τ* for the cis->trans spontaneous thermal reversion isomerisation process, defined as τ=ln 2/k. It should be noted however, that azoaryl compounds' thermal reversion rates are known to depend strongly upon their microenvironment, such as pH and solvent/solvation effects^[7,38]. This was shown for compound (I.1), where a change of only 1.4 pH units gave a 25% change in τ*; note that different compounds are expected to respond very differently to changes in pH so no unifying trends are expected. Therefore the τ* acquired in vitro were considered appropriate only for qualitative intercomparison between samples (trend of τ* vs structure), rather than quantitative prediction of the τ values which might be experienced in cellulo or in vivo. Indeed, these in vitro τ* values appeared at least three times longer than what would have been expected based on in cellulo experiments where the pause time between activating pulses was varied.
Thermal reversion times were measured as described above. Those for selected compounds are presented below (Table 2).

Another data set has as its system HeLa cells. Description: cytotoxicity by crystal violet staining. Format: cell-based. Conditions: 40 h. Here is the method: Seven of the compounds according to the invention were selected for biological tests. Their cytotoxicity was assessed using crystal violet staining as adapted from standard procedure^[31]. Briefly, HeLa cells were seeded on 96-well plates, treated with the given concentrations of the selected compound, and exposed or not to the pulse protocol of illumination with light at 390 nm (pulses of 75 ms every 15 s). After 40 h cells were stained with crystal violet solution (0.5% crystal violet in 20% methanol) for 10 min. Unbound crystal violet was removed by rinsing with distilled water and cells were air-dried. Crystal violet was subsequently eluted from cells with 0.1 M sodium citrate in 50% ethanol. The absorbance of crystal violet is proportional to the cell number and was determined at 590 nm with a FLUOstar Omega microplate reader (BMG Labtech).
Each compound was tested at 6 doses: 100 nM, 500 nM, 1 μM, 2 μM, 5 μM and 10 μM. In order to ensure their solubility in the cell culture media, DMSO was used as a co-solvent, and to provide comparability between all samples the volume of DMSO was adjusted to obtain its final concentration as 1% in the cell culture media for all the compounds at all concentrations tested.
Results presented in Table 4 below are expressed as a fold growth relative to the control growth of the cells treated only with a co-solvent (1% DMSO), and are represented as a mean value from triplicates coming from a representative experiment.

Where [3] appears, read: 100 nM, 390 nm (75 ms every 15 s).
The mark [4] stands for this setting: 500 nM, 390 nm (75 ms every 15 s).
Setting [5] is: 1 μM, 390 nm (75 ms every 15 s).
The mark [6] stands for this setting: 2 μM, 390 nm (75 ms every 15 s).
Where [7] appears, read: 5 μM, 390 nm (75 ms every 15 s).
Setting [8] is: 10 μM, 390 nm (75 ms every 15 s).

Take `COc1ccc(N=Nc2cc(OC)c(OC)c(OC)c2)cc1N` [I.2, 2-methoxy-5-((3,4,5-trimethoxyphenyl)diazenyl)aniline]: the “εE(λstrong)” value in data set [1] stood at 11400 M⁻¹ cm⁻¹. Also, the λiso in data set [1] was 470 nm. Also, in data set [1], the λstrong was 365 nm. Moreover, the “τ, reversion time” value in data set [2] is recorded as 0.75 min. Further, the mean fold growth in the data set with HeLa cells (setting [3]) came out at 1.10 fold; in the data set with HeLa cells (100 nM, Dark) it was 0.97 fold; in the data set with HeLa cells (setting [4]) it was 0.83 fold; in the data set on HeLa cells (500 nM, Dark), 0.90 fold; in the data set with HeLa cells (setting [5]), 0.50 fold; in the data set with HeLa cells (1 μM, Dark) it was 0.89 fold. Besides, the mean fold growth in the data set with HeLa cells (setting [6]) is recorded as 0.47 fold; in the data set on HeLa cells (2 μM, Dark), 0.81 fold; in the data set on HeLa cells (setting [7]), 0.32 fold; with HeLa cells (5 μM, Dark), 0.86 fold; in the data set with HeLa cells (setting [8]) it was 0.34 fold; in the data set on HeLa cells (10 μM, Dark) it was 0.70 fold.

Consider `COc1ccc(N=Nc2cc(OC)c(OC)c(OC)c2)cc1F` [I.3, 1-(3-fluoro-4-methoxyphenyl)-2-(3,4,5-trimethoxyphenyl)diazene], for which, in data set [1], the “εE(λstrong)” value turned out to be 13300 M⁻¹ cm⁻¹. The λiso in data set [1] stood at 445 nm. In data set [1], this compound yielded a λstrong of 365 nm. Moreover, the “τ, reversion time” value in data set [2] was determined as 61 min. Moreover, the mean fold growth in the data set with HeLa cells (setting [3]) worked out at 0.93 fold; in the data set with HeLa cells (100 nM, Dark), 1.03 fold; in the data set on HeLa cells (setting [4]) it was 0.88 fold; in the data set with HeLa cells (500 nM, Dark), 1.00 fold; in the data set with HeLa cells (setting [5]), 0.82 fold; in the data set with HeLa cells (1 μM, Dark), 0.95 fold. The mean fold growth in the data set with HeLa cells (setting [6]) is given as 0.62 fold; with HeLa cells (2 μM, Dark) it was 0.90 fold; with HeLa cells (setting [7]) it was 0.39 fold; with HeLa cells (5 μM, Dark), 0.96 fold; with HeLa cells (setting [8]), 0.47 fold; in the data set with HeLa cells (10 μM, Dark), 0.99 fold.

Regarding `COc1ccc(N=Nc2cc(OC)c(OC)c(OC)c2)c(F)c1F` [I.5, 1-(2,3-difluoro-4-methoxyphenyl)-2-(3,4,5-trimethoxyphenyl)diazene], in data set [1], the “εE(λstrong)” value is 19578 M⁻¹ cm⁻¹, the λiso is given as 450 nm and the λstrong worked out at 365 nm. Moreover, the “τ, reversion time” value in data set [2] stood at 134 min.

Regarding `COc1cc(N=Nc2ccc(OC)c([N+](=O)[O-])c2F)cc(OC)c1OC` [I.7, 1-(2-fluoro-4-methoxy-3-nitrophenyl)-2-(3,4,5-trimethoxyphenyl)diazene], in data set [1], the “εE(λstrong)” value is 13600 M⁻¹ cm⁻¹, the λiso was 455 nm and the λstrong was 365 nm. The “τ, reversion time” value in data set [2] is recorded as 50 min.

Consider `COc1ccc(N=Nc2cc(F)c(OC)c(F)c2)cc1` [I.9, 1-(3,5-difluoro-4-methoxyphenyl)-2-(4-methoxyphenyl)diazene], for which, in data set [1], the “εE(λstrong)” value came out at 11400 M⁻¹ cm⁻¹, the λiso was 430 nm and the λstrong is on record as 355 nm. Besides, the “τ, reversion time” value in data set [2] is listed as 116 min.

Consider `COc1ccc(N=Nc2cc(OC)c(OC)c(OC)c2)cc1OC` [I.11, 1-(3,4-dimethoxyphenyl)-2-(3,4,5-trimethoxyphenyl)diazene], for which, in data set [1], the “εE(λstrong)” value was 18163 M⁻¹ cm⁻¹, the λiso was 460 nm and the λstrong is 375 nm. Moreover, in data set [2], the “τ, reversion time” value came out at 40 min.

Turning to `COc1ccc(N=Nc2cc(OC)c(OC)c(OC)c2)c(OC)c1` [I.12, 1-(2,4-dimethoxyphenyl)-2-(3,4,5-trimethoxyphenyl)diazene], in data set [1], the “εE(λstrong)” value is 12400 M⁻¹ cm⁻¹, the λiso came to 485 nm and the λstrong was determined as 380 nm. In addition, the “τ, reversion time” value in data set [2] came out at 28 min.

In the case of `COc1ccc(N=Nc2cc(OC)c(OC)c(OC)c2)cn1` [I.13, 2-methoxy-5-((3,4,5-trimethoxyphenyl)diazenyl)pyridine], in data set [1], the “εE(λstrong)” value stood at 14200 M⁻¹ cm⁻¹, the λiso was 440 nm and the λstrong is recorded as 355 nm. In data set [2], the “τ, reversion time” value came out at 270 min.

In the case of `COc1cc(N=Nc2ccc(OC)c3ncccc23)cc(OC)c1OC` [I.14, 8-methoxy-5-((3,4,5-trimethoxyphenyl)diazenyl)quinoline], in data set [1], the “εE(λstrong)” value amounted to 18000 M⁻¹ cm⁻¹, the λiso was 485 nm and the λstrong is given as 390 nm. The “τ, reversion time” value in data set [2] is 3.3 min.

On to `COc1ccc(N=Nc2cc(OC)c(OC)c(OC)c2)c(NC(C)=O)c1` [I.26, N-(5-methoxy-2-((3,4,5-trimethoxyphenyl)diazenyl)phenyl)acetamide], for which, in data set [1], the “εE(λstrong)” value turned out to be 16300 M⁻¹ cm⁻¹, the λiso was 475 nm and the λstrong is 380 nm. The “τ, reversion time” value in data set [2] was determined as 8.4 min.

For the compound `COc1ccc(N=Nc2cc(OC)c(OC)c(OC)c2)cc1Br` [I.27, 1-(3-bromo-4-methoxyphenyl)-2-(3,4,5-trimethoxyphenyl)diazene], in data set [1], the “εE(λstrong)” value worked out at 19540 M⁻¹ cm⁻¹, the λiso was determined as 445 nm and the λstrong is on record as 365 nm. For the same compound, the “τ, reversion time” value in data set [2] is recorded as 129 min.

Turning to `COc1ccc(N=Nc2cc(OC)c(OC)c(OC)c2)cc1C=O` [I.28, 2-methoxy-5-((3,4,5-trimethoxyphenyl)diazenyl)benzaldehyde], in data set [1], the “εE(λstrong)” value was 17813 M⁻¹ cm⁻¹, the λiso is listed as 452 nm and the λstrong turned out to be 360 nm. Besides, in data set [2], the “τ, reversion time” value came out at 248 min.

`COc1ccc(N=Nc2cc(OC)c(OC)c(OC)c2)cc1C(=O)O` [I.29, 2-methoxy-5-((3,4,5-trimethoxyphenyl)diazenyl)benzoic acid]: in data set [1], the “εE(λstrong)” value was found to be 20102 M⁻¹ cm⁻¹, the λiso turned out to be 447 nm and the λstrong is given as 365 nm. For the same compound, in data set [2], the “τ, reversion time” value is on record as 104 min.
